Measured values from PubChem BioAssay AID1259407 (Chemical Carcinogenesis Research Information System (CCRIS), 2018).
The source made the active and inactive calls. The rule behind the calls is not given here.

Tested on: CCRIS mutagenicity, Ames/micronucleus/aberration tests
Assay: CCRIS mutagenicity studies
[1] = Test System: AMES SALMONELLA TYPHIMURIUM, Strain/Indicator: TA100, Metabolic Activation: NONE, Method: PREINCUBATION
[2] = Test System: AMES SALMONELLA TYPHIMURIUM, Strain/Indicator: TA97, Metabolic Activation: NONE, Method: STANDARD PLATE
[3] = Test System: AMES SALMONELLA TYPHIMURIUM, Strain/Indicator: TA97, Metabolic Activation: RAT, LIVER, S-9, AROCLOR 1254, Method: STANDARD PLATE
[4] = Test System: AMES SALMONELLA TYPHIMURIUM, Strain/Indicator: TA98, Metabolic Activation: NONE, Method: STANDARD PLATE
[5] = Test System: AMES SALMONELLA TYPHIMURIUM, Strain/Indicator: TA98, Metabolic Activation: RAT, LIVER, S-9, AROCLOR 1254, Method: STANDARD PLATE
[6] = Test System: AMES SALMONELLA TYPHIMURIUM, Strain/Indicator: TA100, Metabolic Activation: NONE, Method: STANDARD PLATE
[7] = Test System: AMES SALMONELLA TYPHIMURIUM, Strain/Indicator: TA100, Metabolic Activation: RAT, LIVER, S-9, AROCLOR 1254, Method: STANDARD PLATE
[8] = Test System: AMES SALMONELLA TYPHIMURIUM, Strain/Indicator: TA1535, Metabolic Activation: NONE, Method: STANDARD PLATE
[9] = Test System: AMES SALMONELLA TYPHIMURIUM, Strain/Indicator: TA1535, Metabolic Activation: RAT, LIVER, S-9, AROCLOR 1254, Method: STANDARD PLATE
[10] = Test System: AMES SALMONELLA TYPHIMURIUM, Strain/Indicator: TA1537, Metabolic Activation: NONE, Method: STANDARD PLATE
[11] = Test System: AMES SALMONELLA TYPHIMURIUM, Strain/Indicator: TA1537, Metabolic Activation: RAT, LIVER, S-9, AROCLOR 1254, Method: STANDARD PLATE
[12] = Test System: AMES SALMONELLA TYPHIMURIUM, Strain/Indicator: TA98, Metabolic Activation: NONE, Method: PREINCUBATION

## CCCC=O
End Point: IN VITRO CHROMOSOMAL ABERRATIONS, Test System: CHINESE HAMSTER OVARY CELLS, Metabolic Activation: NONE
  mutagenic call: inactive; negative
End Point: IN VITRO CHROMOSOMAL ABERRATIONS, Test System: CHINESE HAMSTER OVARY CELLS, Metabolic Activation: RAT, LIVER, S-9, AROCLOR 1254
  mutagenic call: inactive; negative
End Point: In vitro chromosomal aberrations, Test System: Chinese hamster lung (CHL/IU) cells, Metabolic Activation: Rat, Liver, S9, Phenobarbital and 5,6-benzoflavone
  mutagenic call: active; positive (structural changes). ploidy not dose related.
[1]
  mutagenic call: inactive; negative
Test System: AMES SALMONELLA TYPHIMURIUM, Strain/Indicator: TA100, Metabolic Activation: RAT LIVER S-9, AROCLOR 1254, Method: PREINCUBATION
  mutagenic call: inactive; negative
Test System: AMES SALMONELLA TYPHIMURIUM, Strain/Indicator: TA102, Metabolic Activation: NONE, Method: PREINCUBATION
  mutagenic call: inactive; negative
Test System: AMES SALMONELLA TYPHIMURIUM, Strain/Indicator: TA102, Metabolic Activation: RAT LIVER S-9, AROCLOR 1254, Method: PREINCUBATION
  mutagenic call: inactive; negative
Test System: AMES SALMONELLA TYPHIMURIUM, Strain/Indicator: TA104, Metabolic Activation: NONE, Method: PREINCUBATION
  mutagenic call: inactive; negative
Test System: AMES SALMONELLA TYPHIMURIUM, Strain/Indicator: TA104, Metabolic Activation: RAT LIVER S-9, AROCLOR 1254, Method: PREINCUBATION
  mutagenic call: inactive; negative
Test System: CHINESE HAMSTER V-79, Strain/Indicator: V-79/6-THIOGUANINE (HGPRT), Metabolic Activation: NONE, Method: REPLATING
  mutagenic call: active; positive
Test System: CHINESE HAMSTER V-79, Strain/Indicator: V-79/OUABAIN (NA/K), Metabolic Activation: NONE, Method: REPLATING
  mutagenic call: active; positive
Test System: UDS HUMAN HEPATOCYTES, Strain/Indicator: THY INCORP, Metabolic Activation: NONE, Method: AUTORADIOGRAPHY
  mutagenic call: inactive; negative
Test System: UDS RAT HEPATOCYTES, Strain/Indicator: THY INCORP, Metabolic Activation: NONE, Method: AUTORADIOGRAPHY
  mutagenic call: active; positive

## CCOC(=O)c1[nH]c2ccccc2c1N=Cc1ccc(C)cc1
[2]
  mutagenic call: inactive; negative
[3]
  mutagenic call: inactive; negative
[4]
  mutagenic call: inactive; negative
[5]
  mutagenic call: inactive; negative
[6]
  mutagenic call: inactive; negative
[7]
  mutagenic call: inactive; negative
Test System: AMES SALMONELLA TYPHIMURIUM, Strain/Indicator: TA102, Metabolic Activation: NONE, Method: STANDARD PLATE
  mutagenic call: inactive; negative
Test System: AMES SALMONELLA TYPHIMURIUM, Strain/Indicator: TA102, Metabolic Activation: RAT, LIVER, S-9, AROCLOR 1254, Method: STANDARD PLATE
  mutagenic call: inactive; negative

## Cc1cc(C(=O)NNCc2ccccc2)no1
[4]
  mutagenic call: inactive; negative
[5]
  mutagenic call: inactive; negative
[6]
  mutagenic call: inactive; negative
[7]
  mutagenic call: inactive; negative
[8]
  mutagenic call: inactive; negative
[9]
  mutagenic call: inactive; negative
[10]
  mutagenic call: inactive; negative
[11]
  mutagenic call: inactive; negative

## c1ccc(Nc2ccc(Nc3ccccc3)cc2)cc1
End Point: IN VITRO CHROMOSOMAL ABERRATIONS, Test System: CHINESE HAMSTER LUNG CELLS (CHL), Metabolic Activation: RAT, LIVER, S-9, KC-400
  mutagenic call: inactive; negative
End Point: IN VITRO CHROMOSOMAL ABERRATIONS, Test System: CHINESE HAMSTER OVARY CELLS (CHO), Metabolic Activation: NONE
  mutagenic call: inactive; negative
End Point: IN VITRO CHROMOSOMAL ABERRATIONS, Test System: CHINESE HAMSTER OVARY CELLS (CHO), Metabolic Activation: RAT, LIVER, S-9, AROCLOR 1254
  mutagenic call: inactive; negative
End Point: IN VITRO CHROMOSOMAL ABERRATIONS, Test System: CHL CELLS, Metabolic Activation: RAT, LIVER, S-9, SODIUM PHENOBARBITAL AND 5,6-BENZOFLAVONE
  mutagenic call: inactive; negative; authors report equivocal results for structural changes at 0.08 and 0.
Test System: AMES SALMONELLA TYPHIMURIUM, Strain/Indicator: TA98, Metabolic Activation: HAMSTER, LIVER, S-9, AROCLOR 1254 (30%), Method: PREINCUBATION
  mutagenic call: active; positive
[12]
  mutagenic call: inactive; negative
[4]
  mutagenic call: inactive; negative
Test System: AMES SALMONELLA TYPHIMURIUM, Strain/Indicator: TA98, Metabolic Activation: RAT, LIVER, S-9, AROCLOR 1254 (30%), Method: PREINCUBATION
  mutagenic call: active; positive
Test System: AMES SALMONELLA TYPHIMURIUM, Strain/Indicator: TA98, Metabolic Activation: S-9, Method: STANDARD PLATE
  mutagenic call: inactive; negative
Test System: AMES SALMONELLA TYPHIMURIUM, Strain/Indicator: TA100, Metabolic Activation: HAMSTER, LIVER, S-9, AROCLOR 1254 (30%), Method: PREINCUBATION
  mutagenic call: inactive; negative
[1]
  mutagenic call: inactive; negative
[6]
  mutagenic call: inactive; negative
Test System: AMES SALMONELLA TYPHIMURIUM, Strain/Indicator: TA100, Metabolic Activation: RAT, LIVER, S-9, AROCLOR 1254 (30%), Method: PREINCUBATION
  mutagenic call: inactive; negative
Test System: AMES SALMONELLA TYPHIMURIUM, Strain/Indicator: TA100, Metabolic Activation: S-9, Method: STANDARD PLATE
  mutagenic call: inactive; negative

## O=c1c(Cl)c(Cl)cnn1S(=O)(=O)c1ccccc1
[4]
  mutagenic call: inactive; negative
[5]
  mutagenic call: inactive; negative
[6]
  mutagenic call: inactive; negative
[7]
  mutagenic call: inactive; negative
[8]
  mutagenic call: inactive; negative
[9]
  mutagenic call: inactive; negative
[10]
  mutagenic call: inactive; negative
[11]
  mutagenic call: inactive; negative

## CCCCOC(=O)c1cccc2cccnc12
[4]
  mutagenic call: inactive; negative
[5]
  mutagenic call: inactive; negative
[6]
  mutagenic call: inactive; negative
[7]
  mutagenic call: inactive; negative
[8]
  mutagenic call: inactive; negative
[9]
  mutagenic call: inactive; negative
[10]
  mutagenic call: inactive; negative
[11]
  mutagenic call: inactive; negative

## CSCCCCN=C=S
End Point: IN VITRO MICRONUCLEUS, Test System: HUMAN T-LYMPHOCYTES, Metabolic Activation: NONE
  mutagenic call: inactive; negative

## O=S(=O)(O)OCc1c2ccccc2c(CO)c2c1ccc1ccccc12
[12]
  mutagenic call: active; positive

## CCc1cccc(CC)c1N=O
[12]
  mutagenic call: active; positive
Test System: AMES SALMONELLA TYPHIMURIUM, Strain/Indicator: TA98, Metabolic Activation: RAT, LIVER, MICROSOMES, PHENOBARBITAL, Method: PREINCUBATION
  mutagenic call: active; positive
Test System: AMES SALMONELLA TYPHIMURIUM, Strain/Indicator: TA100, Metabolic Activation: RAT, LIVER, MICROSOMES, PHENOBARBITAL, Method: PREINCUBATION
  mutagenic call: active; positive

## C1CCC2OCCOCCOCCOCCOC3CCCCC3OCCOCCOCCOCCOC2C1 (stereo not drawn)
[4]
  mutagenic call: inactive; negative
[5]
  mutagenic call: inactive; negative
[6]
  mutagenic call: inactive; negative
[7]
  mutagenic call: inactive; negative
Test System: AMES SALMONELLA TYPHIMURIUM, Strain/Indicator: TA1530, Metabolic Activation: NONE, Method: STANDARD PLATE
  mutagenic call: inactive; negative
Test System: AMES SALMONELLA TYPHIMURIUM, Strain/Indicator: TA1530, Metabolic Activation: RAT, LIVER, S-9, AROCLOR 1254, Method: STANDARD PLATE
  mutagenic call: inactive; negative
[10]
  mutagenic call: inactive; negative
[11]
  mutagenic call: inactive; negative

## OC(c1ccc(Cl)cc1)(c1ccc(Cl)cc1)C1CC1
[2]
  mutagenic call: inactive; negative
[3]
  mutagenic call: inactive; negative
[4]
  mutagenic call: inactive; negative
[5]
  mutagenic call: inactive; negative
[6]
  mutagenic call: inactive; negative
[7]
  mutagenic call: inactive; negative
